Assay results as given in patent US20260272907A1, “Therapeutic Tyrosine Kinase Inhibitors for Multiple Sclerosis” (Principia Biopharma Inc., priority 2022, published 2026).

Legend:
[1] = test system: patients with relapsing multiple sclerosis; test: Long-term safety extension: slowly evolving lesions (SEL) volume (MRI); assay type: in vivo, human; settings: W96
Description: (§1) In the current open-label extension Part B, all patients receive 60 mg/day. MRI outcomes include numbers of new Gd-enhancing and new/enlarging T2 lesions, T2 lesion volume change from baseline, slowly evolving lesions (SEL), and paramagnetic rim lesions (PRL).

[2] = test system: patients with relapsing multiple sclerosis; test: Long-term safety extension: number of new T1 non-enhancing (hypointense) lesions (MRI); assay type: in vivo, human
Description: as §1
(§2) The Week 0 value is from the last MRI obtained in the dose-finding study if performed within 6 weeks prior to Day 1 of the long-term safety study For some patients the Week 0 value began after a gap period ranging from 0-21 weeks. For patients where the gap period was 0 weeks, the Week 0 value began immediately after the completion of Week 16 of the dose-finding study. For patients where the gap period was greater than 6 weeks a new MRI was obtained prior to Day 1 of the long-term safety study.
(§3) If from Week 16 of the dose-finding study (Cohort 2), it is also included in Week 12. If from Week 16 of the dose-finding study (Cohort 1), it is after 4 weeks placebo run out.

[3] = test system: patients with relapsing multiple sclerosis; test: Phase 2b dose-finding study: number of new or enlarging T2 lesions by brain MRI; settings: for Number of new/enlarging T2 lesions, mean (SD): Cohort 1 (all doses)
Description: (§4) New T1 Gd-enhancing hyperintense and new and enlarging T2 lesions are evaluated at each visit as per the SoA (Table 1), comparing lesion count to that from the previous MRI scan. Unless specified otherwise, the baseline brain MRI is used as the reference to assess all MRI-derived endpoints. The baseline MRI is the last MRI performed before the randomization visit. Standardized endpoint evaluation is assured by central review of brain MRI scans. Blinded central review is performed for all MRI-derived endpoints. Magnetic resonance imaging reviewers are blinded to treatment assignments and to other participant data.
For the number of new or enlarging T2 lesions, descriptive summary statistics over time (4, 8, 12, and 16 weeks) is provided for each of the 4 BTK inhibitor doses. Further, a similar MCP-Mod approach is explored if it is deemed reasonable to extrapolate the Week 4 data from Cohort 2 to the Week 12 placebo data.
(§5) For each secondary endpoint, a similar negative binomial model and the MCP-Mod procedure were used. As it is reasonable to assume a constant rate of lesion formation over 12 weeks under placebo treatment, the same approach as that utilized for the primary endpoint was used, i.e., using the Week 4 data in Cohort 2 as the Week 12 placebo data while accounting for within-participant correlation. Descriptive summary statistics over time were provided for each of the 4 BTK inhibitor dose groups.
Magnetic resonance imaging (MRI) scans were obtained at screening and every 4 weeks for 16 weeks.
OUTCOMES: The outcomes evaluated in this example include measuring the incidence of relapse during 4-week placebo run-in and run-out, the number of new Gd-enhancing T1 lesions detected with magnetic resonance imaging (MRI) at Weeks 4, 8 and 16, the number of new or enlarging T2 lesions measured at Weeks 4, 8 and 16, and the plasma CD19+B-cell count measured in the placebo run-out cohort at baseline, 1 hour after the first dose, then at Week 12 and Week 16 (FIG. 3).

[4] = test system: patients with relapsing multiple sclerosis; test: Phase 2b dose-finding study: total number of Gd-enhancing T1-hyperintense lesions by brain MRI; settings: for Count of Gd-enhancing T1-hyperintense lesions, observed mean (SD): 12 weeks of treatment
Description: as §4
As it is reasonable to assume a constant rate of lesion formation over 12 weeks under placebo for total number of Gd-enhancing T1-hyperintense lesions, the same approach as that utilized for the primary endpoint is used, by using the Week 4 data in Cohort 2 as the Week 12 placebo data while accounting for the within-participant correlation. Descriptive summary statistics over time is provided for each of the 4 BTK inhibitor doses.
as §5

[5] = test system: CYP3A; test: Preclinical drug metabolism studies: CYP3A; assay type: in vitro ADME
Text: See Table 12 for the list of drugs not to be used.

[6] = test system: patients with relapsing multiple sclerosis; test: Long-term safety extension: number of new or enlarging T2 lesions (MRI); assay type: in vivo, human
Description: as §1, §2, §3

[7] = test system: patients with relapsing multiple sclerosis; test: Long-term safety extension: paramagnetic rim lesions (PRL) count (MRI); assay type: in vivo, human
Description: as §1

[8] = 5 mg daily, after 12 weeks of treatment
[9] = 15 mg daily, after 12 weeks of treatment
[10] = 30 mg daily, after 12 weeks of treatment
[11] = 60 mg daily, after 12 weeks of treatment
[12] = 60 mg, end of 12 weeks of treatment, 27 of 31 with evaluable MRI

For `C=CC(=O)N1CCC[C@@H](n2c(=O)n(-c3ccc(Oc4ccccc4)cc3)c3c(N)nccc32)C1` [the BTK inhibitor, (R)-1-(1-acryloylpiperidin-3-yl)-4-amino-3-(4-phenoxyphenyl)-1H-imidazo[4,5-c]pyridin-2(3H)-one], the “SEL volume, median (IQR)” value ([1]; 5/60-mg arm) was 247.5 (84-420) mm3, the “SEL volume, median (IQR)” value ([1]; 15/60-mg arm) was 258 (66-906) mm3 and the “SEL volume, median (IQR)” value ([1]; 30/60-mg arm) was 570 (133.5-1011) mm3. The “SEL volume, median (IQR)” value ([1]; 60/60-mg arm) was 244.5 (87-939) mm3, the “Number of new T1 non-enhancing (hypointense) lesions, Mean (SD)” value (shortened to “Number of new T1 non-enhancing … (SD)”) ([2]; 5/60 mg, Week 0) was 0.23 (0.43) and the “Number of new T1 non-enhancing (hypointense) lesions, Median” value (from here on “Number of new T1 non-enhancing … Median”) ([2]; 5/60 mg, Week 0) was 0.00. The “Number of new T1 non-enhancing … (SD)” value ([2]; 5/60 mg, Week 12) was 0.19 (0.60), the “Number of new T1 non-enhancing … Median” value ([2]; 5/60 mg, Week 12) was 0.00 and the “Number of new T1 non-enhancing … (SD)” value ([2]; 15/60 mg, Week 0) was 0.61 (1.45). For the same compound, the “Number of new T1 non-enhancing … Median” value ([2]; 15/60 mg, Week 0) was 0.00, the “Number of new T1 non-enhancing … (SD)” value ([2]; 15/60 mg, Week 12) was 0.26 (0.73) and the “Number of new T1 non-enhancing … Median” value ([2]; 15/60 mg, Week 12) was 0.00. The “Number of new T1 non-enhancing … (SD)” value ([2]; 30/60 mg, Week 0) was 0.31 (1.09), the “Number of new T1 non-enhancing … Median” value ([2]; 30/60 mg, Week 0) was 0.00 and the “Number of new T1 non-enhancing … (SD)” value ([2]; 30/60 mg, Week 12) was 0.09 (0.39). For the same compound, the “Number of new T1 non-enhancing … Median” value ([2]; 30/60 mg, Week 12) was 0.00, the “Number of new T1 non-enhancing … (SD)” value ([2]; 60/60 mg, Week 0) was 0.06 (0.36) and the “Number of new T1 non-enhancing … Median” value ([2]; 60/60 mg, Week 0) was 0.00. The “Number of new T1 non-enhancing … (SD)” value ([2]; 60/60 mg, Week 12) was 0.03 (0.18), the “Number of new T1 non-enhancing … Median” value ([2]; 60/60 mg, Week 12) was 0.00 and the “Number of new T1 non-enhancing … (SD)” value ([2]; All (N = 125), Week 0) was 0.30 (0.96). For the same compound, the “Number of new T1 non-enhancing … Median” value ([2]; All (N = 125), Week 0) was 0.00, the “Number of new T1 non-enhancing … (SD)” value ([2]; All (N = 125), Week 12) was 0.14 (0.52) and the “Number of new T1 non-enhancing … Median” value ([2]; All (N = 125), Week 12) was 0.00. The “New or enlarging T2 lesion count, Mean” value [3, 8] was 1.90, the “New or enlarging T2 lesion count, Median” value [3, 8] was 0.00 and the “Count of new and enlarging T2 lesions, observed mean (SD)” value ([3]; 5 mg once daily, end of 12 weeks of treatment) was 1.90 (3.97). The “New or enlarging T2 lesion count, Mean” value [3, 9] was 1.32, the “New or enlarging T2 lesion count, Median” value [3, 9] was 1.00 and the “Count of new and enlarging T2 lesions, observed mean (SD)” value ([3]; 15 mg once daily, end of 12 weeks of treatment) was 1.32 (1.83). The “New or enlarging T2 lesion count, Mean” value [3, 10] was 1.30, the “New or enlarging T2 lesion count, Median” value [3, 10] was 0.00 and the “Count of new and enlarging T2 lesions, observed mean (SD)” value ([3]; 30 mg once daily, end of 12 weeks of treatment) was 1.30 (4.90). For the same compound, the “New or enlarging T2 lesion count, Mean” value [3, 11] was 0.23, the “New or enlarging T2 lesion count, Median” value [3, 11] was 0.00 and the “Patients with >=3 new or enlarging T2 lesions” value [3, 11] was 0 n. The “Count of new and enlarging T2 lesions, observed mean (SD)” value ([3]; 60 mg once daily, end of 12 weeks of treatment) was 0.23 (0.62), the “Adjusted relative reduction in count of new and enlarging T2 lesions relative to placebo” value ([3]; 60 mg, 12 weeks, 95% CI [68.39%, 96.41%], nominal p=0.0001) was 89.34% and the “Participants with no new and enlarging T2 lesions” value [3, 12] was 87.1%. The “Number of new/enlarging T2 lesions, mean (SD)” value ([3]; Week 12) was 0.58 (1.27), the “Number of new/enlarging T2 lesions, mean (SD)” value ([3]; after 4 weeks of placebo run-out) was 0.95 (2.72) and the “Total Gd-enhancing T1-hyperintense lesion count, Mean” value [4, 8] was 1.77. For the same compound, the “Total Gd-enhancing T1-hyperintense lesion count, Median” value [4, 8] was 0.00, the “Count of Gd-enhancing T1-hyperintense lesions, observed mean (SD)” value ([4]; 5 mg once daily) was 1.77 (4.10) and the “Patients with 2 total Gd-enhancing T1-hyperintense lesions” value [4, 9] was 0 n. The “Total Gd-enhancing T1-hyperintense lesion count, Mean” value [4, 9] was 0.87, the “Total Gd-enhancing T1-hyperintense lesion count, Median” value [4, 9] was 0.00 and the “Count of Gd-enhancing T1-hyperintense lesions, observed mean (SD)” value ([4]; 15 mg once daily) was 0.87 (1.59). The “Total Gd-enhancing T1-hyperintense lesion count, Mean” value [4, 10] was 1.18, the “Total Gd-enhancing T1-hyperintense lesion count, Median” value [4, 10] was 0.00 and the “Count of Gd-enhancing T1-hyperintense lesions, observed mean (SD)” value ([4]; 30 mg once daily) was 1.18 (4.87). For the same compound, the “Total Gd-enhancing T1-hyperintense lesion count, Mean” value [4, 11] was 0.29, the “Total Gd-enhancing T1-hyperintense lesion count, Median” value [4, 11] was 0.00 and the “Count of Gd-enhancing T1-hyperintense lesions, observed mean (SD)” value ([4]; 60 mg once daily) was 0.29 (0.86). For the same compound, the “Participants with no Gd-enhancing T1-hyperintense lesions” value [4, 12] was 87.1%, the “Relative reduction in total count of Gd-enhancing T1-hyperintense lesions relative to placebo” value ([4]; any of the doses tested (5, 15, 30, 60 mg), 12 weeks) was “No statistically significant relative reduction” and the “Substrate of CYP3A isoenzyme” value [5] was “substrate”. For the same compound, the “Number of new or enlarging T2 lesions, Mean (SD)” value ([6]; 5/60 mg, Week 0) was 3.97 (8.47), the “Number of new or enlarging T2 lesions, Median” value ([6]; 5/60 mg, Week 0) was 0.00 and the “Number of new or enlarging T2 lesions, Mean (SD)” value ([6]; 5/60 mg, Week 12) was 1.68 (3.49). For the same compound, the “Number of new or enlarging T2 lesions, Median” value ([6]; 5/60 mg, Week 12) was 0.00, the “Number of new or enlarging T2 lesions, Mean (SD)” value ([6]; 15/60 mg, Week 0) was 3.52 (6.51) and the “Number of new or enlarging T2 lesions, Median” value ([6]; 15/60 mg, Week 0) was 1.00. For the same compound, the “Number of new or enlarging T2 lesions, Mean (SD)” value ([6]; 15/60 mg, Week 12) was 1.32 (1.83), the “Number of new or enlarging T2 lesions, Median” value ([6]; 15/60 mg, Week 12) was 1.00 and the “Number of new or enlarging T2 lesions, Mean (SD)” value ([6]; 30/60 mg, Week 0) was 3.41 (7.32). For the same compound, the “Number of new or enlarging T2 lesions, Median” value ([6]; 30/60 mg, Week 0) was 0.00, the “Number of new or enlarging T2 lesions, Mean (SD)” value ([6]; 30/60 mg, Week 12) was 1.34 (4.97) and the “Number of new or enlarging T2 lesions, Median” value ([6]; 30/60 mg, Week 12) was 0.00. For the same compound, the “New/enlarging T2 lesion counts” value ([6]; 60/60 mg, LTS through W96) was “remained low”, the “Number of new or enlarging T2 lesions, Mean (SD)” value ([6]; 60/60 mg, Week 0) was 1.10 (1.87) and the “Number of new or enlarging T2 lesions, Median” value ([6]; 60/60 mg, Week 0) was 0.00. The “Number of new or enlarging T2 lesions, Mean (SD)” value ([6]; 60/60 mg, Week 12) was 0.29 (0.69), the “Number of new or enlarging T2 lesions, Median” value ([6]; 60/60 mg, Week 12) was 0.00 and the “Number of new or enlarging T2 lesions, Mean (SD)” value ([6]; All (N = 125), Week 0) was 3.00 (6.56). For the same compound, the “Number of new or enlarging T2 lesions, Median” value ([6]; All (N = 125), Week 0) was 0.00, the “Number of new or enlarging T2 lesions, Mean (SD)” value ([6]; All (N = 125), Week 12) was 1.16 (3.21) and the “Number of new or enlarging T2 lesions, Median” value ([6]; All (N = 125), Week 12) was 0.00. For the same compound, the “Patients in whom PRL count remained unchanged” value ([7]; W96 vs baseline, all arms) was 18 patients, the “Patients with 1 PRL at baseline but none at W96” value ([7]; all arms) was 2 patients and the “Patients with 1-3 additional PRL at W96 vs baseline” value ([7]; none in the 60/60 mg arm) was 3 patients.
